The RepoRT retention time repository (doi:10.1007/s00216-015-8540-6)

Assay: Waters Atlantis T3, 100 × 2.1 mm, 3 µm, 0.1 mL/min, estimated dead time 2.2 min; A: water + 0.01% formic acid; B: methanol + 0.01% formic acid; gradient (min/%B) 0/5 3/5 20/100 29/100
Details: stereoisomer not certain

SMILES | LC retention time
CCN(CC)CC(=O)Nc1c(C)cccc1C | 13.4 min
COc1cccc(C2(O)CCCCC2CN(C)C)c1 (stereo unspecified) | 14.2 min
CC1=C(C(=O)O)N2C(=O)C(NC(=O)C(N)c3ccc(O)cc3)C2SC1 (stereo unspecified) | 11.8 min
CC1(C)SC2C(NC(=O)C(N)c3ccc(O)cc3)C(=O)N2C1C(=O)O (stereo unspecified) | 11.2 min
CCCCCc1cc(O)c2c(c1C(=O)O)OC(C)(C)C1CCC(C)=CC21 (stereo unspecified) | 26.9 min
CC(C)NCC(O)COc1cccc2ccccc12 (stereo unspecified) | 16.2 min
CC(N)C(O)c1ccccc1 (stereo unspecified) | 10.9 min
CCn1cc(C(=O)O)c(=O)c2cc3c(cc21)OCO3 | 18.3 min
CCCCC(=O)N(Cc1ccc(-c2ccccc2-c2nn[nH]n2)cc1)C(C(=O)O)C(C)C (stereo unspecified) | 24.4 min
COc1ccc2c3c1OC1C(O)C=CC4C(C2)N(C)CCC341 (stereo unspecified) | 11.8 min
CN(C)C1C(=O)C(C(N)=O)=C(O)C2(O)C(=O)C3=C(O)c4c(O)cccc4C(C)(O)C3C(O)C12 (stereo unspecified) | 14.8 min
COc1ccc2nc(S(=O)Cc3ncc(C)c(OC)c3C)[nH]c2c1 (stereo unspecified) | 18.7 min
Cc1ncc([N+](=O)[O-])n1CCO | 13.3 min
Cn1c([N+](=O)[O-])cnc1COC(N)=O | 13.2 min
CC1CC2C(C(O)CC3(C)C2CCC3(O)C(=O)CO)C2(C)C=CC(=O)C=C12 (stereo unspecified) | 21.4 min
CCOc1cc(OC)c(OCC)cc1CC(C)N (stereo unspecified) | 3.15 min
CN1CCN2c3ncccc3Cc3ccccc3C2C1 (stereo unspecified) | 14.6 min
CNCCC=C1c2ccccc2CCc2ccccc21 | 18 min
Cn1c(=O)c2c(ncn2C)n(C)c1=O | 15.2 min
CC12CCC(=O)C=C1CCC1C2C(O)CC2(C)C1CCC2(O)C(=O)CO (stereo unspecified) | 20.6 min
NC(=O)N1c2ccccc2C=Cc2ccccc21 | 20.2 min
CNC(=C[N+](=O)[O-])NCCSCc1ccc(CN(C)C)o1 | 11.4 min

SMILES | LC retention time
COCCc1ccc(OCC(O)CNC(C)C)cc1 (stereo unspecified) | 11.2 min
CC(N)Cc1ccccc1 (stereo unspecified) | 12.6 min
CN=C(NC#N)NCCSCc1nc[nH]c1C | 11.5 min
CNC(C)C(O)c1ccccc1 (stereo unspecified) | 11.7 min
CC(C(=O)O)c1cccc(C(=O)c2ccccc2)c1 (stereo unspecified) | 21.8 min
COc1ccc(C(CN(C)C)C2(O)CCCCC2)cc1 (stereo unspecified) | 15.7 min
CCC(=O)C(CC(C)N(C)C)(c1ccccc1)c1ccccc1 (stereo unspecified) | 17.6 min
CC1=C(C(=O)O)N2C(=O)C(NC(=O)C(N)c3ccccc3)C2SC1 (stereo unspecified) | 11.8 min
CC12CCC(=O)C=C1CCC1C2C(=O)CC2(C)C1CCC2(O)C(=O)CO (stereo unspecified) | 20 min
CN1C2CCC1C(C(=O)O)C(OC(=O)c1ccccc1)C2 (stereo unspecified) | 15.7 min
CN(C)CCCN1c2ccccc2CCc2ccccc21 | 17.6 min
COC(=O)C1C(OC(=O)c2ccccc2)CC2CCC1N2C (stereo unspecified) | 14.3 min
CC(=O)OC1C=CC2C3Cc4ccc(O)c5c4C2(CCN3C)C1O5 (stereo unspecified) | 12.5 min
Cc1cc2c(s1)Nc1ccccc1N=C2N1CCN(C)CC1 | 12.6 min
CN1CCC23c4c5ccc(O)c4OC2C(O)C=CC3C1C5 (stereo unspecified) | 9.52 min
CCC1(c2ccccc2)C(=O)NCNC1=O | 17.1 min
CCC(C(N)=O)N1CCCC1=O (stereo unspecified) | 13.7 min
Cc1noc(NS(=O)(=O)c2ccc(N)cc2)c1C | 14.6 min
CCC1OC(=O)C(C)C(OC2CC(C)(OC)C(O)C(C)O2)C(C)C(OC2OC(C)CC(N(C)C)C2O)C(C)(O)CC(C)CN(C)C(C)C(O)C1(C)O (stereo unspecified) | 18.7 min
CN1CCN2c3ncc(O)cc3Cc3ccccc3C2C1 (stereo unspecified) | 13.6 min
CCC1OC(=O)CC(O)C(C)C(OC2OC(C)C(OC3CC(C)(O)C(O)C(C)O3)C(N(C)C)C2O)C(CC=O)CC(C)C(=O)C=CC(C)=CC1COC1OC(C)C(O)C(OC)C1OC (stereo unspecified) | 17.6 min
CCNC(C)Cc1ccc2c(c1)OCO2 (stereo unspecified) | 13.4 min

SMILES | LC retention time
CC(=O)C1CCC2C3CCC4=CC(=O)CCC4(C)C3CCC12C (stereo unspecified) | 24.8 min
CNC(C)Cc1ccc2c(c1)OCO2 (stereo unspecified) | 13 min
CN(C)C(=N)N=C(N)N | 3.04 min
CC1(C)OC2COC3(COS(N)(=O)=O)OC(C)(C)OC3C2O1 (stereo unspecified) | 18.3 min
CCN(CC)C(=O)C1C=C2c3cccc4[nH]cc(c34)CC2N(C)C1 (stereo unspecified) | 15.1 min
CC(=O)Oc1ccc2c3c1OC1C(OC(C)=O)C=CC4C(C2)N(C)CCC341 (stereo unspecified) | 14.1 min
C=CC1(C)CC(OC(=O)CSCCN(CC)CC)C2(C)C(C)CCC3(CCC(=O)C32)C(C)C1O (stereo unspecified) | 17.3 min
CC(=O)Nc1ccc(O)cc1 | 13.3 min
CC(N)Cc1ccc2c(c1)OCO2 (stereo unspecified) | 12.9 min
COc1ccc2c3c1OC1C(=O)CCC4(O)C(C2)N(C)CCC314 (stereo unspecified) | 12.1 min
CCC(C)(C)C(=O)OC1CC(C)C=C2C=CC(C)C(CCC3CC(O)CC(=O)O3)C21 (stereo unspecified) | 27.1 min
CN(C)CCC=C1c2ccccc2CCc2ccccc21 | 17.9 min
Cc1nnc(SCC2=C(C(=O)O)N3C(=O)C(NC(=O)Cn4cnnn4)C3SC2)s1 (stereo unspecified) | 17.6 min
CCOP(=O)(Sc1ccccc1)Sc1ccccc1 | 16.2 min
CN(C)CCC=C1c2ccccc2COc2ccccc21 | 16.7 min
CN(C)C1C(=O)C(C(N)=O)=C(O)C2(O)C(=O)C3=C(O)c4c(O)cccc4C(C)(O)C3CC12 (stereo unspecified) | 14.5 min
COc1cc(Cc2cnc(N)nc2N)cc(OC)c1OC | 12.9 min
COC12CCC3(CC1C(C)(O)C(C)(C)C)C1Cc4ccc(O)c5c4C3(CCN1CC1CC1)C2O5 (stereo unspecified) | 16.8 min
O=C1CN=C(c2ccccc2)c2cc([N+](=O)[O-])ccc2N1 | 20.4 min
CC(C)NCC(O)COc1ccc(CC(N)=O)cc1 (stereo unspecified) | 11.3 min
CNC(C)Cc1ccccc1 (stereo unspecified) | 12.8 min
CCC1OC(=O)C(C)C(OC2CC(C)(OC)C(O)C(C)O2)C(C)C(OC2OC(C)CC(N(C)C)C2O)C(C)(OC)CC(C)C(=O)C(C)C(O)C1(C)O (stereo unspecified) | 18.7 min
